From ChEMBL document CHEMBL1821555, “Identification of a series of 4-[3-(quinolin-2-yl)-1,2,4-oxadiazol-5-yl]piperazinyl ureas as potent smoothened antagonist hedgehog pathway inhibitors” (Bioorg Med Chem Lett, 2011)

Tests used:
Protein smoothened [1] = biological target: T1, Protein smoothened (Homo sapiens, UniProt Q99835); assay: Displacement of Bodipy-labelled cyclopamine from Smo expressed in COS-1 cells in presence of 2% FBS after 4 to 6 hrs by FACS flow cytometric analysis; type: cell-based
Shh Light II = assay: Inhibition of Shh signaling in mouse Shh-light2 cells by Gli-dependent firefly luciferase reporter gene assay; type: functional, cell-based
[2] = Intrinsic clearance in rat liver microsomes assessed per mg of protein; type: ADME, Microsome
[3] = Terminal half life in rat; type: ADME, organism-based; details: in vivo, read-out: beta t1/2 (converted)
Protein smoothened [4] = biological target: T1, Protein smoothened; assay: Inhibition of Bodipy-labelled cyclopamine binding to Smo expressed in COS-1 cells in presence of 20% NHS after 4 to 6 hrs by FACS flow cytometric analysis; type: cell-based
[5] = Clearance in rat; type: ADME, organism-based; details: in vivo
[6] = Oral bioavailability in rat; type: ADME, organism-based; details: in vivo
[7] = Fraction unbound in rat plasma; type: ADME, cell-free
[8] = Fraction unbound in human plasma; type: ADME, cell-free
[9] = Lipophilicity, log D of the compound; type: physicochemical; details: octanol/water

T1 sequence (Q99835 whole entry): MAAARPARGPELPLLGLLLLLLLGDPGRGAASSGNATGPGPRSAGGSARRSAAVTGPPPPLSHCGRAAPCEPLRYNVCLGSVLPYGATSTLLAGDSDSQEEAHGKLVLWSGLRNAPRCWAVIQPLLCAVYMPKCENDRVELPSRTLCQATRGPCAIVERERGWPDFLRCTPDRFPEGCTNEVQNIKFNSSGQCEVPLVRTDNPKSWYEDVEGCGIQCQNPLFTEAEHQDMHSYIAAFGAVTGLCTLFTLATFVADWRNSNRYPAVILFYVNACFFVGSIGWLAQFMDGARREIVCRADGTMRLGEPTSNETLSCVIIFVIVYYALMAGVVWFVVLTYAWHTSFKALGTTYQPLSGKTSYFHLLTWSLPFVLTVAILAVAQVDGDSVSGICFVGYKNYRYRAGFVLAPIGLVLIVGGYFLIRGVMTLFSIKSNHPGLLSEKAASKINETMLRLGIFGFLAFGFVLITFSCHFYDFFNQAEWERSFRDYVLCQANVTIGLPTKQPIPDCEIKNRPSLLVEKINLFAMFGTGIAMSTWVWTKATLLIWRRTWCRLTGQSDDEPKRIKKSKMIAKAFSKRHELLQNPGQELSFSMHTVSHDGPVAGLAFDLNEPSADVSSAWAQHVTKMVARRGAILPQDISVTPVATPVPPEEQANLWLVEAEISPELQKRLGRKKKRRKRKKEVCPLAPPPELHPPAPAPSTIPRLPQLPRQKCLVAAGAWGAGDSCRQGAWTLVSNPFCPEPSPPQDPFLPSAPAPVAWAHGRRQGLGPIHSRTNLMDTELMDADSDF

SMILES | IC50 (Protein smoothened [1]) [nM] | IC50 (Shh Light II) [nM] | other results
O=C(Nc1cccc2cccnc12)N1CCC(c2nc(-c3ccc4ccccc4n3)no2)CC1 | 1300 | 1400 | –
COc1ccccc1NC(=O)N1CCC(c2nc(-c3cccnc3)no2)CC1 | > 2500 | – | –
O=C(Nc1ccccc1Cl)N1CCC(c2nc(-c3ccccc3)no2)CC1 | > 2500 | – | –
COc1cccc(NC(=O)N2CCC(c3nc(-c4ccc5ccccc5n4)no3)CC2)c1 | 220 | 410 | –
O=C(Nc1ccccc1Cl)N1CCC(c2nc(-c3cccnc3)no2)CC1 | > 2500 | – | –
O=C(Nc1ccccc1Cl)N1CCC(c2nc(-c3ccc4ccncc4n3)no2)CC1 | > 2500 | – | –
COc1ccccc1NC(=O)N1CCC(c2nc(-c3cnc4ccccc4c3)no2)CC1 | 1900 | – | –
O=C(NC1CCS(=O)(=O)CC1)N1CCC(c2nc(-c3ccc4ccccc4n3)no2)CC1 | 860 | 360 | microsomal CLint [2]: 8 µL/min/mg; half-life [3]: 0.9 h; IC50 (Protein smoothened [4]): 1600 nM; clearance [5]: 40 mL/min/kg
O=C(N1CCC(c2nc(-c3ccc4ccccc4n3)no2)CC1)N1CCCc2ccccc21 | 670 | 2300 | –
COc1ccccc1NC(=O)N1CCC(c2nc(-c3ncccn3)no2)CC1 | > 2500 | – | –
O=C(Nc1ccc(Cl)cc1)N1CCC(c2nc(-c3ccc4ccccc4n3)no2)CC1 | 470 | – | –
COc1ccccc1NC(=O)N1CCC(c2noc(-c3ccc4ccccc4n3)n2)CC1 | 15000 | 2400 | –
O=C(OC1CCCCC1)N1CCC(c2nc(-c3ccc4ccccc4n3)no2)CC1 | 280 | 580 | –
O=C(Nc1ccccc1Cl)N1CCC(O)(c2nc(-c3ccc4ccccc4n3)no2)CC1 | 2100 | 1300 | –
Cn1c(-c2noc(C3CCN(C(=O)NC4CCCCC4)CC3)n2)nc2ccccc21 | 350 | 89 | bioavailability [6]: 59%; microsomal CLint [2]: 192 µL/min/mg; half-life [3]: 1.3 h; IC50 (Protein smoothened [4]): 1100 nM; fraction unbound [7]: 0.02; clearance [5]: 26 mL/min/kg
COc1ccccc1NC(=O)N1CCC(c2nc(-c3cnccn3)no2)CC1 | > 2500 | – | –
Cn1c(-c2noc(N3CCN(C(=O)NC4CCC(F)(F)CC4)CC3)n2)nc2ccccc21 | 7 | – | IC50 (Protein smoothened [4]): 25 nM
O=C(Nc1ccccc1Cl)N1CCC(c2nc(-c3cnccn3)no2)CC1 | > 2500 | – | –
O=C(c1ccccc1Cl)N1CCC(c2nc(-c3ccc4ccccc4n3)no2)CC1 | > 2500 | – | –
CC(=O)N1CCC(NC(=O)N2CCC(c3nc(-c4ccc5ccccc5n4)no3)CC2)CC1 | 2300 | 500 | IC50 (Protein smoothened [4]): 1300 nM
CC1CN(C(=O)Nc2ccccc2Cl)CCC1c1nc(-c2ccc3ccccc3n2)no1 (mixture of isomers) | 790 | 680 | –
CS(=O)(=O)c1ccc(Cl)c(NC(=O)N2CCC(c3nc(-c4ccc5ccccc5n4)no3)CC2)c1 | 1200 | – | IC50 (Protein smoothened [4]): > 2500 nM
COc1ccccc1NC(=O)N1CCC(c2nc(-c3cc4ccccc4cn3)no2)CC1 | 750 | – | –
O=C(Nc1cccnc1Cl)N1CCC(c2nc(-c3ccc4ccccc4n3)no2)CC1 | 1500 | 1600 | –
COc1cccc2nc(-c3noc(C4CCN(C(=O)Nc5ccccc5Cl)CC4)n3)ccc12 | > 2500 | – | IC50 (Protein smoothened [4]): > 2500 nM
O=C(Nc1ccccc1Cl)N1CCC(c2nc(-c3nccc4ccccc34)no2)CC1 | > 2500 | – | –

SMILES | IC50 (Protein smoothened [1]) [nM] | IC50 (Shh Light II) [nM] | other results
O=C(NC1CCNCC1)N1CCC(c2nc(-c3ccc4ccccc4n3)no2)CC1 | 2900 | 2500 | IC50 (Protein smoothened [4]): 3700 nM
O=C(Nc1ncccc1Cl)N1CCC(c2nc(-c3ccc4ccccc4n3)no2)CC1 | > 2500 | 2800 | –
Cn1c(-c2noc(C3CCN(C(=O)NC4CCS(=O)(=O)CC4)CC3)n2)nc2ccccc21 | 690 | 350 | IC50 (Protein smoothened [4]): 760 nM
Cc1ccccc1NC(=O)N1CCC(c2nc(-c3ccc4ccccc4n3)no2)CC1 | 510 | 440 | –
O=C(Nc1ccccc1Cl)N1CCC(c2nc(-c3ccc4ncccc4n3)no2)CC1 | > 2500 | – | –
O=C(CC1CCCCCC1)N1CCC(c2nc(-c3ccc4ccccc4n3)no2)CC1 | 1000 | 840 | –
O=C(OCc1ccccc1)N1CCC(c2nc(-c3ccc4ccccc4n3)no2)CC1 | > 2500 | > 2500 | –
COc1ccc2nc(-c3noc(C4CCN(C(=O)Nc5ccccc5Cl)CC4)n3)ccc2c1 | 1800 | – | –
COc1ccccc1OC(=O)N1CCC(c2nc(-c3ccc4ccccc4n3)no2)CC1 | 110 | 250 | –
O=C(Nc1ccccc1Cl)N1CCC(c2nc(-c3ccccn3)no2)CC1 | > 2500 | – | –
O=C(Nc1ccccc1Cl)N1CCC(c2nc(-c3cnc4ccccc4c3)no2)CC1 | > 2500 | – | –
CN1CCC(NC(=O)N2CCC(c3nc(-c4ccc5ccccc5n4)no3)CC2)CC1 | 3400 | 3200 | –
O=C(NC1CCCCC1)N1CCC(c2nc(-c3ccc4ccccc4n3)no2)CC1 | 280 | 57 | fraction unbound [8]: 0.005; microsomal CLint [2]: > 300 µL/min/mg; IC50 (Protein smoothened [4]): 1600 nM
COc1ccccc1NC(=O)N1CCC(c2nc(-c3ccc4ccccc4c3)no2)CC1 | 2200 | – | –
Cc1noc(C)c1NC(=O)N1CCC(c2nc(-c3ccc4ccccc4n3)no2)CC1 | 1500 | 3000 | –
N#Cc1ccc(NC(=O)N2CCC(c3nc(-c4ccc5ccccc5n4)no3)CC2)c(Cl)c1 | 1900 | – | –
Cn1c(-c2noc(N3CCN(C(=O)NC4CCCCC4)CC3)n2)nc2ccccc21 | 3 | 5 | bioavailability [6]: 10%; microsomal CLint [2]: 119 µL/min/mg; IC50 (Protein smoothened [4]): 33 nM; clearance [5]: 26 mL/min/kg; logD [9]: 2.57
c1ccc2nc(-c3noc(C4CCN(CC5CCCCC5)CC4)n3)ccc2c1 | > 2500 | – | –
O=C(Nc1ccccc1Cl)N1CCC(c2nc(-c3cnc4ccccc4n3)no2)CC1 | 1100 | – | –
O=C(NC1CCOCC1)N1CCC(c2nc(-c3ccc4ccccc4n3)no2)CC1 | 1700 | 480 | IC50 (Protein smoothened [4]): 8600 nM
O=C(Nc1ccccc1Cl)N1CCC(c2nc(-c3ncc4ccccc4n3)no2)CC1 | > 2500 | – | –
CC1(c2nc(-c3ccc4ccccc4n3)no2)CCN(C(=O)Nc2ccccc2Cl)CC1 | 6000 | 2500 | –
COc1ccccc1NC(=O)N1CCC(c2nc(-c3ccncc3)no2)CC1 | > 2500 | – | –
N#Cc1ccccc1NC(=O)N1CCC(c2nc(-c3ccc4ccccc4n3)no2)CC1 | 490 | 190 | –
O=C(NC1CC[S+]([O-])CC1)N1CCC(c2nc(-c3ccc4ccccc4n3)no2)CC1 (stereo unspecified) | 1800 | 850 | IC50 (Protein smoothened [4]): 4800 nM
COc1ccccc1NC(=O)N1CCC(c2nc(-c3ccccc3C)no2)CC1 | > 2500 | – | –

SMILES | IC50 (Protein smoothened [1]) [nM] | IC50 (Shh Light II) [nM] | other results
COc1ccc2ccc(-c3noc(C4CCN(C(=O)Nc5ccccc5Cl)CC4)n3)nc2c1 | > 2500 | – | IC50 (Protein smoothened [4]): > 2500 nM
COc1ccccc1NC(=O)N1CCC(c2nc(-c3ccc4ccccc4n3)no2)CC1 | 180 | 410 | –
C[C@@H]1C[C@H](c2nc(-c3ccc4ccccc4n3)no2)CCN1C(=O)Nc1ccccc1Cl | 620 | 2400 | –
O=C(Nc1ccccc1Cl)N1CCC(c2nc(-c3ccc4cnccc4n3)no2)CC1 | 2200 | – | –
N#Cc1ccc(Cl)c(NC(=O)N2CCC(c3nc(-c4ccc5ccccc5n4)no3)CC2)c1 | 320 | – | IC50 (Protein smoothened [4]): > 2500 nM
O=C(Nc1ccccc1C(F)(F)F)N1CCC(c2nc(-c3ccc4ccccc4n3)no2)CC1 | 340 | 700 | –
COc1ccccc1N(C)C(=O)N1CCC(c2nc(-c3ccc4ccccc4n3)no2)CC1 | 1400 | 3100 | –
CC(C)c1ccccc1NC(=O)N1CCC(c2nc(-c3ccc4ccccc4n3)no2)CC1 | 350 | 480 | –
O=C(Nc1cnccc1Cl)N1CCC(c2nc(-c3ccc4ccccc4n3)no2)CC1 | 1100 | 2000 | –
CS(=O)(=O)c1ccc(NC(=O)N2CCC(c3nc(-c4ccc5ccccc5n4)no3)CC2)c(Cl)c1 | 1500 | – | IC50 (Protein smoothened [4]): 4100 nM; logD [9]: 2.8
O=C(NCC1CCC1)N1CCC(c2nc(-c3ccc4ccccc4n3)no2)CC1 | 750 | 410 | –
COc1cc(-c2noc(C3CCN(C(=O)Nc4ccccc4Cl)CC3)n2)nc2ccccc12 | > 2500 | – | IC50 (Protein smoothened [4]): > 2500 nM
COc1ccccc1NC(=O)N1CCC(c2nc(-c3ccccn3)no2)CC1 | > 2500 | – | –
COc1cc2ccccc2nc1-c1noc(C2CCN(C(=O)Nc3ccccc3Cl)CC2)n1 | > 2500 | – | IC50 (Protein smoothened [4]): > 2500 nM
O=C(Nc1ccccc1Cl)N1CCC(F)(c2nc(-c3ccc4ccccc4n3)no2)CC1 | 1000 | 1300 | –
COc1ccccc1NC(=O)N1CCC(c2nc(-c3ccccc3)no2)CC1 | > 2500 | – | –
O=C(Nc1ccccc1)N1CCC(c2nc(-c3ccc4ccccc4n3)no2)CC1 | 480 | – | –
C[C@H]1C[C@H](c2nc(-c3ccc4ccccc4n3)no2)CCN1C(=O)Nc1ccccc1Cl | 640 | 900 | –
COc1ccccc1NC(=O)N1CCC(c2nc(-c3nccc4ccccc34)no2)CC1 | > 2500 | – | –
O=C(NC1CCCC1)N1CCC(c2nc(-c3ccc4ccccc4n3)no2)CC1 | 420 | 630 | –
O=C(Nc1ccccc1Cl)N1CCC(c2nc(-c3ncccn3)no2)CC1 | > 2500 | – | –
CCNC(=O)N1CCC(c2nc(-c3ccc4ccccc4n3)no2)CC1 | > 2500 | – | –
Clc1ccccc1CN1CCC(c2nc(-c3ccc4ccccc4n3)no2)CC1 | > 2500 | – | –
COc1cccc2ccc(-c3noc(C4CCN(C(=O)Nc5ccccc5Cl)CC4)n3)nc12 | > 2500 | – | –
O=C(NC1CCC(F)(F)CC1)N1CCC(c2nc(-c3ccc4ccccc4n3)no2)CC1 | 480 | – | IC50 (Protein smoothened [4]): 1500 nM
